Entries after “also recorded” stand apart in the source; their conditions may differ.
Key:
[1] = Drug-drug interaction study in humans (Phase-1, open-label, two-group, fixed-sequence, PK); settings: for increase of exposure caused by Odalasvir: co-administration of Odalasvir; for increase of exposure caused by SMV: co-administration of SMV
Description: A drug-drug interaction study (DDI) study is a study designed to investigate whether a drug alters the pharmacokinetics of another drug or drugs or their metabolites.
Compound (III)—Subjects received 800 mg of Compound (III) once daily from Days 1-3, Days 11-13, and Days 21-23. PK blood samples for determination of Compound (III) and metabolite concentrations were collected in reference to the Day 3, Day 13, and Day 23 doses.
Simeprevir—Subjects received 150 mg of Simeprevir (SMV) once daily from Days 4-23. PK blood samples for determination of SMV concentrations were collected in reference to the Day 10, Day 13, Day 20, and Day 23 doses.
Odalasvir—Subjects received a loading dose of 150 mg on Day 14, and 50 mg of Odalasvir once daily from Days 15-23. PK blood samples for determination of Odalasvir concentrations were collected in reference to the Day 20 and Day 23 doses.
Compound (III)—Subjects received 800 mg of Compound (III) once daily from Days 1-3, Days 11-13 and Days 21-23. PK blood samples for determination of Compound (III) and metabolite concentrations were collected in reference to the Day 3, Day 13, and Day 23 doses.
Simeprevir—Subjects receive 150 mg of SMV once daily from Days 4-23. PK blood samples for determination of SMV concentrations were collected in reference to the Day 20 and Day 23 doses.
Odalasvir—Subjects receive a loading dose of 150 mg on Day 4, and 50 mg of Odalasvir once daily from Days 5-23. PK blood samples for determination of Odalasvir concentrations were collected in reference to the Day 10, Day 13, Day 20, and Day 23 doses.
This drug-drug interaction study was intended to assess the safety and tolerability of the described drug combinations at pre-defined time points throughout the study. Study completion/follow-up visit(s) were performed 7 and 28 days after completion of the last study assessment.
A primary objective was to evaluate the effect of multiple oral doses of Odalasvir (alone), Simeprevir (alone), and Odalasvir and Simeprevir on the multiple oral dose PK of Compound (III) (and certain metabolites thereof, such as the major metabolites in systemic circulation) in healthy volunteers. Other objectives were to evaluate the safety and tolerability of multiple oral doses of Compound (III) when administered alone and in combination with single and multiple oral doses of Odalasvir and/or Simeprevir in healthy volunteers; to determine the potential effect of Compound of Compound (III) and/or Odalasvir on the steady-state PK of Simeprevir in healthy volunteers; to determine the potential effect of Compound of Compound (III) and/or Simeprevir on the steady state PK of Odalasvir in healthy volunteers.
Various other PK parameters were estimated including: Clast, t1/2, Tmax, Tlast, CL/F, Vz/F, and λz.
The following daily doses were employed:
Odalasvir: 150 mg loading dose; 50 mg for the remainder of the study period.

[2] = Phase 2a open-label combination study, pharmacokinetics and safety; assay type: in vivo, human; settings: for change of exposure on reducing SMV dosing from 100 mg to 75 mg QD: in vivo
Description: A randomized, Phase 2a, open-label study was carried out to evaluate the safety, pharmacokinetics and efficacy of the combination of Compound (III), Odalasvir and Simeprevir in Genotype 1 treatment-naïve subjects with chronic hepatitis C. Other treatment-naïve subjects included Genotype 2, 3, 4, 5 and 6. The aim of the study was to determine the efficacy, pharmacokinetics (PK), and safety of Compound (III)+Odalasvir±SMV in HCV-infected subjects. […] Efficacy, PK and safety evaluations were conducted during and through 24 weeks post dosing. Up to 15 cohorts were enrolled; data was generated from cohorts that have completed dosing.

[3] = SMV co-administered with Rosuvastatin (substrate of OATPs & BCRP); cited from earlier work
[4] = biological target: Pgp (Homo sapiens, UniProt P08183); settings: cited from earlier work
[5] = tested on: CYP (any CYP); experiment: CYP inhibition; settings: on any CYP
[6] = SMV co-administered with Digoxin (a pgp-substrate); cited from earlier work
[7] = tested on: NTCP; settings: printed: other OATPs NTCP; read-out: NTCP inhibition IC50; cited from earlier work

Pgp, sequence (P08183 whole entry): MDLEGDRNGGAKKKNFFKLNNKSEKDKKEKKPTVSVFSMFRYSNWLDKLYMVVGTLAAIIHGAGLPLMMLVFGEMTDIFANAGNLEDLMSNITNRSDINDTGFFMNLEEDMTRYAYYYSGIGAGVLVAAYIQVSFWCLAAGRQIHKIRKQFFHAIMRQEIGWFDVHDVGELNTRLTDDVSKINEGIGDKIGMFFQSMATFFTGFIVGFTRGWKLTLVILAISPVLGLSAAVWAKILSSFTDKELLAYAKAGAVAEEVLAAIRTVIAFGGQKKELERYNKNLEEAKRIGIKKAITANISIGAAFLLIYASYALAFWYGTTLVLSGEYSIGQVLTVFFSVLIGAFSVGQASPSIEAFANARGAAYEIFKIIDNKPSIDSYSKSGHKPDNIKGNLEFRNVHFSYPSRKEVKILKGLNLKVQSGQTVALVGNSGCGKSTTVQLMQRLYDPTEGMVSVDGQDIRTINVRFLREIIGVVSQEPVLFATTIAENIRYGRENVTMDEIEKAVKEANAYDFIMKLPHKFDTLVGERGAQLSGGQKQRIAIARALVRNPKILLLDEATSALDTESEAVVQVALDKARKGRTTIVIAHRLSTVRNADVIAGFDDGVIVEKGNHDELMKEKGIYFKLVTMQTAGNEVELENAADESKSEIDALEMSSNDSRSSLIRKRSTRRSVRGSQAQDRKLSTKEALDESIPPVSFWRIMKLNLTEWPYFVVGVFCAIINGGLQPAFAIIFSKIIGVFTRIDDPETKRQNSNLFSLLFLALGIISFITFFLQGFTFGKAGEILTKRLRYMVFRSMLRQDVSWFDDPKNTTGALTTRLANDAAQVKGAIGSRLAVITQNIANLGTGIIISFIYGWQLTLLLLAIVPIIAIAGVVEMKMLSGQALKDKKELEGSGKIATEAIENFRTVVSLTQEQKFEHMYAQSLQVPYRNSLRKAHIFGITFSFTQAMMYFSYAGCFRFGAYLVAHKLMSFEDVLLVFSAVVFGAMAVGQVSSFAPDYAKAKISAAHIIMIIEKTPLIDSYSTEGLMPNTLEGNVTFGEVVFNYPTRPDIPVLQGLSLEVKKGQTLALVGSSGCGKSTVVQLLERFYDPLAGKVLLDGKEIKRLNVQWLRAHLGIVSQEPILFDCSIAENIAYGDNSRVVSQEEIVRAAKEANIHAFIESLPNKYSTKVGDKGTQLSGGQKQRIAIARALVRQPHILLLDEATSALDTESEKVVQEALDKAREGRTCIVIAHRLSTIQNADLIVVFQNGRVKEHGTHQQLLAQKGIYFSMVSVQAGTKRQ

| SMILES | increase of exposure caused by Odalasvir ([1]; DDI study) [×] | increase of exposure caused by SMV ([1]; DDI study) | change of exposure on increasing Compound (III) dose from 400 to 800 mg ([2]; HCV patients) | increase in Rosuvastatin exposure [3] [fold] | increase of exposure, effect of the three Compounds ([1]; DDI study, Compound (III) + SMV + Odalasvir together) [×] | effect of Compound (III) on exposure/bioavailability ([1]; DDI study, co-administration of Compound (III)) | increase of exposure in the combination ([1]; human in vivo study (Example 1), three drugs combined) [times] | increase of bioavailability by ODV ([1]; human subjects) [fold] | observed exposure in Cohort 1 / group (i) ([2]; Compound (III) 400 mg, ODV 50 mg QD, SMV 100 mg QD) | change of exposure on reducing SMV dosing from 100 mg to 75 mg QD [2] | change of exposure on reducing SMV dosing from 100 mg to 75 mg QD ([2]; listed as Simeprevir) | in vitro inhibition of Pgp [4] | CYP inhibition potential [5] | increase in exposure of Digoxin [6] [%] | IC50 [7] [µM] |
| --- | --- | --- | --- | --- | --- | --- | --- | --- | --- | --- | --- | --- | --- | --- | --- |
| C[C@]1(O)[C@H](n2ccc(=O)[nH]c2=O)O[C@](F)(CO)[C@H]1O [Compound A-1] | 1.5 | no apparent effect | less than proportionally |  |  |  |  |  |  |  |  |  |  |  |  |
| C[C@H](NP(=O)(O)OC[C@@]1(F)O[C@@H](n2ccc(=O)[nH]c2=O)[C@](C)(O)[C@@H]1O)C(=O)O [Compound A-3] | 2.6 | 1.6 × |  |  |  |  |  |  |  |  |  |  |  |  |  |
| COc1ccc2c(O[C@@H]3C[C@H]4C(=O)N[C@]5(C(=O)NS(=O)(=O)C6CC6)C[C@H]5/C=C\CCCCN(C)C(=O)[C@@H]4C3)cc(-c3nc(C(C)C)cs3)nc2c1C [SMV, Simeprevir, reference compound] | 1.6 |  |  | 3 | 1.6 | no apparent effect; also recorded: does not alter the bioavailability | 1.6 | 1.6 | higher than anticipated | decreased SMV exposure less than proportionally | decreased Simeprevir exposure less than proportionally | strong/moderate in vitro inhibition | limited | 35 | 2.2 |
